The numbers were not newly measured in patent publication US9764130B2, “Transdermal systems for the delivery of therapeutic agents including granisetron using iontophoresis” (Teva Pharmaceuticals International GmbH, priority 2005, dated 2017), which cites them from elsewhere.

Molecules are shown by their SMILES.

The conditions of the data set: transdermal iontophoresis from anode pad; hairless rat animal model; AAPS 2003/2004 abstracts.

For `CN1C2CCCC1CC(NC(=O)c1nn(C)c3ccccc13)C2` (stereo not shown) [granisetron], the “time within which a therapeutic dosage is achieved with iontophoresis” value is “two”.
